Reference: patent US20030208035A1, “Antifungal and/or antibacterial peptides, preparation methods, compositions containing same and methods of treating mammals and/or plants” (priority 2000, published 2003)
Bridges are numbered along the chain shown (N, C = ends). Where no end group is shown, it is not given here.

Tests used:
C. dubliensis = type: cell-based
Experimental: (§1) Candida yeasts (C. albicans, C. glabrata, C. dubliensis, C. tropicalis, C. kefyr, C. krusei and C. parapsilosis—donated by Dr. H. Koenig, Hôpital Civil, Strasbourg), fluconazole-resistant C. albicans (n^o245962, n^o2332, n^o246335 and n^o3552, donated by Drs. J.Meis and J. Mouton, University Hospital, Microbiology Department, Nijmegen, Netherlands), and Cryptoccocus neoformans (donated by Dr. H. Koenig, Hôpital Civil, Strasbourg) were seeded on Sabouraud-Cloramphenicol Agar slant gelose (Biomerieux) and left to incubate for 24 h at 30° C. (Candida sp.) and for 72 h at 37° C. (Cryptoccocus neoformans).
(§2) Some yeast colonies were placed in suspension in liquid Sabouraud medium (Biomerieux) to obtain a final concentration of 0.1 OD at 600 nm corresponding to 2.5.10^6 yeasts/ml.
(§3) The yeast suspension was adjusted to 5.10^3 yeast/ml in Sabouraud medium.
(§4) 100 μl of peptide dilutions (concentration of 50 with 0.097 μg/ml peptide) were deposited in microtitration plates. After adding […] of yeast suspension with 5.10^3 yeast/ml i.e. 500 yeasts, the test plates were incubated 24 h at 30° C. (Candida) under slow shaking or 72 h at 37° C. (Cryptoccocus).
(§5) Determination of minimal inhibiting concentrations (MIC) was made by measuring absorbency at 600 nm using a spectrophotometer-microtitration plate reader. The MIC score was set at a growth inhibition rate of 50%.

C. parapsilosis = type: cell-based
Experimental: as §1, §2, §3, §4, §5

C. albicans = type: cell-based, Candida albicans; conditions: 24 h
Experimental: as §1, §2, §3, §4, §5

A. fumigatus = type: cell-based; conditions: 48 h
Experimental: The antifungal activity was detected by a growth inhibition test in a liquid medium.
The filamentous fungi (A. fumigatus, A. flavus and A. terreus, donated by Dr. H. Koenig, Hôpital Civil, Strasbourg; and S. prolificans and F. solani donated by Drs. J. Meis and J. Mouton, University hospital, Microbioolgy Department, Nijmegen, Netherlands) were seeded on Malt-Agar slant gelose (Biomerieux) and incubated 7 days at 37° C.
The spores were then collected with 10 ml YPG medium containing 0.05% Tween 20 and filtered through a gauze. The spores were centrifuged 10 min at 1700 rpm, the residue was collected in YPG (1 g Yeast extract, 1 g Peptone, 3 g Glucose per 1 l).
The suspension was counted with a Coverslide and adjusted to 10^4 spores/ml.
100 μl of peptide dilutions (concentration of 50 with 0.097 μg/ml peptide) were deposited in microtitration plates. 100 μl with 10^4 spores/ml of filamentous fungi, i.e. 1000 spores, were then added.
The test plates were incubated 48 h at 37° C.
Determination of minimum inhibiting concentrations (MIC) was made by observing well cover rate. The MIC score was set at 50% well covering.

[1] = test system: fluconazole-resistant C. albicans; assay: microbe, parasite or virus in culture; type: cell-based, Candida albicans; conditions: fluconazole-resistant
Experimental: as §1, §2, §3, §4, §5

Sequence	MIC (C. dubliensis) [µg/mL]	MIC (C. parapsilosis) [µg/mL]	MIC (C. albicans) [µg/mL]	MIC (A. fumigatus) [µg/mL]	MIC [1] [µg/mL]
DKLIGSCVWGAVNYTSNCNAECKRRGYKGGHCGSFANVNCWCQT (disulfide 7-32, 18-40, 22-42 (inferred)) [pEM31]	6.25	1.56	–	–	–
DKLIGSCVWGAVNYTSNCNAECKRRGYKGGHCGSFLNVNCWCET (disulfide 7-32, 18-40, 22-42 (inferred)) [pEM35]	–	–	1.56	6.25	–
DKLIGSCVWGAVNYTSNCNAECKRRGYKGGHCGSFLNVNCWCQT (disulfide 7-32, 18-40, 22-42 (inferred)) [pEM46]	3.125	0.78	–	3.125	–
DKLIGSCVWGAVNYTSNCRAECKRRGYKGGHCGSFANVNCWCET (disulfide 7-32, 18-40, 22-42 (inferred)) [pEM51]	–	–	–	–	1.56
